Measured values from ChEMBL document CHEMBL1201862, “PubChem BioAssay data set” (2004).
Activity calls are given as the source filed them.

Tests used:
[1] = microbe, parasite or virus in culture; assay type: functional; conditions: Mycobacterium tuberculosis
[2] = molecular target: T1, Corticotropin-releasing factor receptor 2/Corticotropin-releasing factor-binding protein (Homo sapiens, UniProt P24387+Q13324); assay: activators of CRF receptor 2 with binding protein – uHTS hits, confirmation (AID 602473); assay type: functional; conditions: read-out: EC50_Mean
T1 sequence (Q13324 whole entry): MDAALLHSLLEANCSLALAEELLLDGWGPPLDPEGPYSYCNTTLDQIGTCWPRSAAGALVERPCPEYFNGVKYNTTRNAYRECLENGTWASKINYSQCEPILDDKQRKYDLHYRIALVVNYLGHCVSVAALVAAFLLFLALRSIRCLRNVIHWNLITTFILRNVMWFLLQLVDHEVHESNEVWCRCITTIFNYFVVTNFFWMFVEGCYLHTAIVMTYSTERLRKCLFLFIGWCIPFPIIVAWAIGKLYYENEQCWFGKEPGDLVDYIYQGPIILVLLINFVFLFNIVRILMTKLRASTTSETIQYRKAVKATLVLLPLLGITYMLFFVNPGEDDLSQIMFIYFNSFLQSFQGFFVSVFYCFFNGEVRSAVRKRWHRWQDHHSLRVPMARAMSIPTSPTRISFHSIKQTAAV
T1 sequence (P24387 whole entry): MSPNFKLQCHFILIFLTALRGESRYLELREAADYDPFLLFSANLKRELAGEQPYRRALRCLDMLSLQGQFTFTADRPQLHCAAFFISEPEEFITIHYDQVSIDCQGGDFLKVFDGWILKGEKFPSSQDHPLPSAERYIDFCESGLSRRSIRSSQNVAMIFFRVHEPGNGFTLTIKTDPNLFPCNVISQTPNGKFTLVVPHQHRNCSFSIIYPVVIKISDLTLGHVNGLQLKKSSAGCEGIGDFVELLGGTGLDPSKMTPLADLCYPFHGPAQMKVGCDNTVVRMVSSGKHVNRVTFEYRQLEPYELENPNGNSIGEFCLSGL

[3] = growth suppression of PTEN-null colon cells, dose response, cell-based, HCT116 PTEN knockout (AID 1047); assay type: functional;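 further: HCT116 colon tumor cells with PTEN knocked out; cells exposed to compound for 60 hours before readout; potency for loss of cell viability measured by luminescence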
[4] = growth suppression of beta-catenin-knockout colon cells, dose response, cell-based, HCT116, human colon tumor (AID 1045); assay type: functional;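 further: HCT116 colon tumor cells with beta catenin knocked out; cells exposed to compound for 60 hours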
cells [5] = assay type: functional, cell-based
cells [6] = assay type: functional, cell-based; remark: listed apart in the source
Cytochrome P450 2D6 = Cytochrome P450 2D6 (Homo sapiens, UniProt P10635);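 further: CYP2D6 member of a cytochrome P450 panel assay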
Cytochrome P450 2C19 = Cytochrome P450 2C19 (Homo sapiens, UniProt P33261); assay: Cytochrome panel assay with activity outcomes. Panel member name: p450-cyp2c19 Compounds with AC50 equal or less than 10 uM are considered active; assay type: functional; conditions: read-out: AC50
[7] = molecular target: T2, RNA-binding protein pos-1 (Caenorhabditis elegans, UniProt G5EF15); assay: inhibitors of POS-1/mex-3 RNA binding, dose response, biochemical, fluorescence polarization (AID 1964);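 further: purified POS-1 fused to maltose binding protein made in E. coli; potency of compounds blocking POS-1 binding to fluorescent RNA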
T2 sequence (G5EF15 whole entry): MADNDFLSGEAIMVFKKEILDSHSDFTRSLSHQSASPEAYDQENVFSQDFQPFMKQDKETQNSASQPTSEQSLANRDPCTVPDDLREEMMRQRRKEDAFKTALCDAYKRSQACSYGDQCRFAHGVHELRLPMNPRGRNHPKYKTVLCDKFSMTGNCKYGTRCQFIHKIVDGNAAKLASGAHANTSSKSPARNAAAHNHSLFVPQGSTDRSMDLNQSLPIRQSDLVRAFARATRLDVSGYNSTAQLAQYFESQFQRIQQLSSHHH

[8] = control 3'UTR Renilla luciferase suppression, dose response, counter-screen for Shn3 inhibitor project, cell-based, Clone20-Shn3RL, cherry-picked (AID 624133); assay type: functional
[9] = Shn3 3'UTR reporter inhibitors, dose response, cell-based, Clone20 osteoblasts, firefly luciferase, cherry-picked (AID 624132); assay type: functional;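 further: firefly luciferase luminescence from reporter carrying the Shn3 3'UTR in osteoblasts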
[10] = C. albicans growth with fluconazole, confirmation, fluorescence, retest (AID 2467); assay type: functional, cell-based
[11] = NIH-3T3 fibroblast cytotoxicity, dose response, cytotoxicity control, cell-based, fluorescence, Alamar Blue, secondary assay (AID 2327); assay type: functional;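 further: NIH-3T3 mouse fibroblasts cultured with fluconazole at 8 µg/mL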
[12] = inhibitors of HIV Env-driven cell fusion, dose response, cherry-pick (AID 652057); assay type: functional, cell-based
[13] = inhibitors of clade B AD8 Env fusion, dose response, cell-based, cherry-pick (AID 652062); assay type: functional;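 further: luciferase signal from cell-cell fusion driven by HIV-1 clade B AD8 Env; potency is for inhibitors of fusion seen as a drop in luminescence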
[14] = ZM109 Env clade C HIV-1 fusion inhibitors, dose response, HeLa effector, CEM target cells, luciferase, cherry-pick (AID 652058); assay type: functional, cell-based
Paired box protein Pax-8 = Paired box protein Pax-8 (Homo sapiens, UniProt Q06710); assay: inhibitors of PAX8-driven TPO luciferase reporter, dose response, RMG-I cells, cherry-pick (AID 687027); assay type: functional, cell-based;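 further: luciferase reporter driven by Pax8 target thyroperoxidase promoter measured by SteadyGlo luminescence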
[15] = P. falciparum Dd2 growth inhibitors, dose response, SYBR Green, cherry-picked samples (AID 1159567); assay type: functional, cell-based
[16] = Luminescence Cell-Based Dose Retest to Confirm Inhibitors of Cancer Stem Cells. [Related pubchem assays (depositor defined):AID2717, AID2721]; assay type: functional, Homo sapiens; conditions: Homo sapiens
[17] = cytotoxicity toward NIH3T3 fibroblasts, dose response, counter-screen, cell-based, ATP luminescence, mouse fibroblasts (AID 2010); assay type: functional;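 further: cells exposed to compound for about 90 hours before reading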
Streptococcus = assay: Group A Streptococcus viability loss, dose response, counter-screen for streptokinase expression inhibitor project, luminescence, BacTiterGlo (AID 1915); assay type: functional, organism-based;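 further: potency for reduction of bacterial viability or growth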
Streptokinase A = molecular target: T3, Streptokinase A (Streptococcus pyogenes serotype M1, UniProt P10520); assay: S. pyogenes streptokinase expression inhibitors, potency, dose response, plasminogen activation absorbance, OD405 (AID 1914); assay type: functional, Streptococcus pyogenes M1 GAS;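 further: secreted streptokinase activity via plasminogen activation per viability signal from cell pellet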
T3 sequence (P10520 whole entry): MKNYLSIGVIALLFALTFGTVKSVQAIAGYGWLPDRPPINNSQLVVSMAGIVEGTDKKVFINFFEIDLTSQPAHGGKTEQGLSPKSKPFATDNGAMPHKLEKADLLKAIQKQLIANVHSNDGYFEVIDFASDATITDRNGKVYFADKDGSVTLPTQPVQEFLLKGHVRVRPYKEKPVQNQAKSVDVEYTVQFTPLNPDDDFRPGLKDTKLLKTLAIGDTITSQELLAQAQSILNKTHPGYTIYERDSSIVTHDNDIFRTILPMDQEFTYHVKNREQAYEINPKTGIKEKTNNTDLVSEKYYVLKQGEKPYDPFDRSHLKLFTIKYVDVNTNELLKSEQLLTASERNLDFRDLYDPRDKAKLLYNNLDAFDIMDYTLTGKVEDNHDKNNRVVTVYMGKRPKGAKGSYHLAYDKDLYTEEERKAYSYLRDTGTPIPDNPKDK

[18] = inhibitors of intracellular T. cruzi replication, confirmation, NIH3T3 host cells, beta-gal luminescence (AID 2044); assay type: functional, cell-based;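 further: intracellular parasites grown in NIH/3T3 mouse fibroblasts as host cells; luminescent beta-galactosidase reporter signal from transgenic T. cruzi replicating inside host cells; inhibitors lower the luminescence signal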
[19] = system: Streptococcus sp. 'group A'; assay: growth inhibition of control SK(-) GAS strain, dose response, counter-screen for streptokinase expression inhibitor project, luminescence, kanamycin, BacTiterGlo, confirmation (AID 1900); assay type: functional, organism-based; conditions: read-out: EC50

Chain of Cytochrome P450 2D6 (P10635 whole entry): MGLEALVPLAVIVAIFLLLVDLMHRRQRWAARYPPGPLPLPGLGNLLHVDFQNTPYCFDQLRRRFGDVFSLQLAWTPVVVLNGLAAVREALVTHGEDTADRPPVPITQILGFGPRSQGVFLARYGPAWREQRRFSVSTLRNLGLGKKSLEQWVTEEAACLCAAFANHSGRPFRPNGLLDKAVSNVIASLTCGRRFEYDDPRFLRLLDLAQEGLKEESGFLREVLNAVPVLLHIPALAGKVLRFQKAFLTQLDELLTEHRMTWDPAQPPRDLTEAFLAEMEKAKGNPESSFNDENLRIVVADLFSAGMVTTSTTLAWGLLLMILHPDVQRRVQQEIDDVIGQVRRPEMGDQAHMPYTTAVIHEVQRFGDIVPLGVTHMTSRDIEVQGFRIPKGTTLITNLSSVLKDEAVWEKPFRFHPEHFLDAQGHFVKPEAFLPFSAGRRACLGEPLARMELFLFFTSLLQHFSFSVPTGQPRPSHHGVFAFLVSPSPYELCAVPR
Chain of Paired box protein Pax-8 (Q06710 whole entry): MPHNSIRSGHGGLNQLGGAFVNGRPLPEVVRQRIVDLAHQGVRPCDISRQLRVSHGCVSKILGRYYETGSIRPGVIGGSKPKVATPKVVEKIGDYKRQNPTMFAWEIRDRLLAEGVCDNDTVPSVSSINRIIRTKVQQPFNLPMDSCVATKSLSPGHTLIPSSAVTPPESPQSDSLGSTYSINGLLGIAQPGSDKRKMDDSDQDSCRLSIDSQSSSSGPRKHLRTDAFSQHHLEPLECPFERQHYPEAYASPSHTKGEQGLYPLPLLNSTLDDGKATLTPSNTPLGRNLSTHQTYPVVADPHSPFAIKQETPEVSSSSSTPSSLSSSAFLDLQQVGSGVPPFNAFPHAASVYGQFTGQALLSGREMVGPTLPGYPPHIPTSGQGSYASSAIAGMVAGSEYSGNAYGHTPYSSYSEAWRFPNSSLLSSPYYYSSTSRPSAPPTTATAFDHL
Chain of Cytochrome P450 2C19 (P33261 whole entry, the tested form may be a part): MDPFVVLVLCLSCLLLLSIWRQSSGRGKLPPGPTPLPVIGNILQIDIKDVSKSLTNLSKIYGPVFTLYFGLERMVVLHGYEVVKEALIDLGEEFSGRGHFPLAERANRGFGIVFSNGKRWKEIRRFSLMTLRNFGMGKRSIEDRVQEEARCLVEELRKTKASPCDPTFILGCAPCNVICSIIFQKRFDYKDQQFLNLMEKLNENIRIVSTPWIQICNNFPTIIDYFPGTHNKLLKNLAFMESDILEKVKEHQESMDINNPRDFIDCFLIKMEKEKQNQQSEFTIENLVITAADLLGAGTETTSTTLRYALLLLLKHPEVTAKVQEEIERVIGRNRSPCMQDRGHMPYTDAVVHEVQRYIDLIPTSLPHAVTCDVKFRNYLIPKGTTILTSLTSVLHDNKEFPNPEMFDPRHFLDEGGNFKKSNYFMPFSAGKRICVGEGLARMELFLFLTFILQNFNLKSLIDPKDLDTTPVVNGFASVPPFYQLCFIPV

Question: For `CCN1C(NCCc2ccc(Br)cc2)=N[C@@H](c2ccccc2)[C@H](C(=O)OC)[C@H]1C`, which CC50 [1] is on record?
Answer: 34.3 µM (active)

Question: Which EC50 [2] does the source give for `O=c1c(/C=C(\O)c2ccc(F)cc2)nc2ccccc2n1-c1ccccc1` here?
Answer: 7.18 µM (active)

Question: For `C=CCNc1oc(-c2ccc(-c3ccccc3)cc2)nc1C#N`, which CC50 [1] is on record?
Answer: > 40 µM (active)

Question: Which results are given for `COc1ccc(CC(=O)Nc2ccc(-c3noc(-c4ccc(Cl)cc4)n3)cc2)cc1`?
Answer: EC50 [3]: 2.11 µM (active); EC50 [4]: 1.69 µM (active)

Question: What does the source list for `O=C(NCc1ccco1)c1cc(-c2ccccc2)on1`?
Answer: EC50 (cells [5]): > 350 µM (not active); EC50 (cells [6]): 62.4 µM (active)

Question: Which AC50 (Cytochrome P450 2D6) does the source give for `CN(C)c1nc(-c2cccc(NS(C)(=O)=O)c2)nc2ccccc12` here?
Answer: 25.1 µM (inconclusive)

Question: And the AC50 (Cytochrome P450 2C19)?
Answer: 20 µM (inconclusive)

Question: Which EC50 [7] does the source give for `CCOc1ccc(N2C(=O)/C(=C/c3ccco3)C(=O)NC2=S)cc1` here?
Answer: 55.3 µM (active)

Question: For `COc1ccccc1CCn1c(=O)c(-c2ccc(F)c(F)c2)nc2cncnc21`, which AC50 (Cytochrome P450 2D6) is on record?
Answer: 31.6 µM (inconclusive)

Question: What does the source list for `CC(=O)O[C@H]1CC[C@@]2(C)C(=CC[C@H]3[C@@H]4CC[C@H](C(C)=O)[C@@]4(C)CC[C@@H]32)C1`?
Answer: AC50 [8]: 29 µM (active); AC50 [9]: 28.5 µM (active)

Question: Which EC50 [10] does the source give for `COc1cccc(/C=N/Nc2cc(-n3nc(C)cc3-c3ccccc3)ncn2)c1O` here?
Answer: 1.57 µM (active)

Question: And the EC50 (cells [5])?
Answer: > 350 µM (not active)

Question: What about the EC50 [11] of the same compound?
Answer: 61 µM (active)

Question: What about the EC50 (cells [6]) of the same compound?
Answer: > 350 µM (not active)

Question: With `COc1ccc2o/c(=N\c3ccccc3)c(-c3nc4ccccc4[nH]3)cc2c1` as the compound, how does the EC50 [3] read?
Answer: 2.22 µM (active)

Question: And the EC50 [4]?
Answer: 2.59 µM (active)

Question: Which AC50 [12] does the source give for `CCCNC(=O)C[C@H]1CC[C@@H]2[C@@H](COc3ccc(NC(=O)c4cccc(C(F)(F)F)c4)cc3C(=O)N2C)O1` here?
Answer: 36 µM (active)

Question: What about the AC50 [13] of the same compound?
Answer: 12.7 µM (active)

Question: And the AC50 [14]?
Answer: 5.51 µM (active)

Question: Which AC50 [12] does the source give for `C[C@H](CO)N1C[C@H](C)[C@@H](CN(C)Cc2ccc(Cl)c(Cl)c2)Oc2ccc(N(C)C)cc2C1=O` here?
Answer: 10.5 µM (active)

Question: What about the AC50 [13] of the same compound?
Answer: 8.23 µM (active)

Question: And the AC50 [14]?
Answer: 5.9 µM (active)

Question: For `C[C@H]1CN([C@@H](C)CO)S(=O)(=O)c2ccc(C#Cc3ccccc3F)cc2O[C@H]1CN(C)C(=O)c1ccc2c(c1)OCO2`, which AC50 (Paired box protein Pax-8) is on record?
Answer: 5.76 µM (active)

Question: What about the AC50 [15] of the same compound?
Answer: 5.07 µM (active)

Question: Which AC50 [16] does the source give for `CCOC(=O)/C(=N/Nc1ccccc1)c1csc(Nc2ccccc2)n1` here?
Answer: 1.88 µM (active)

Question: And the EC50 [17]?
Answer: > 30 µM (not active)

Question: What about the CC50 [1] of the same compound?
Answer: > 40 µM (active)

Question: What about the EC50 (Streptococcus) of the same compound?
Answer: 4.88 µM (active)

Question: What about the EC50 (Streptokinase A) of the same compound?
Answer: > 150 µM (not active)

Question: What about the EC50 [18] of the same compound?
Answer: 1.39 µM (active)

Question: And the EC50 [19]?
Answer: 3.92 µM (active)

Question: Which AC50 [15] does the source give for `C[C@H](CO)N1C[C@H](C)[C@H](CN(C)CC2CC2)Oc2ccc(NS(=O)(=O)c3ccc(Cl)cc3)cc2CC1=O` here?
Answer: 5.58 µM (active)

Question: For `N#C[C@@H]1[C@@H](c2ccc(C#CC3CCCCC3)cc2)[C@H](CO)N1C(=O)Nc1ccc(F)cc1`, which AC50 [15] is on record?
Answer: 5.12 µM (active)

Question: For `COCC(=O)Nc1ccc2c(c1)C(=O)N(C)C[C@@H](OC)[C@H](C)CN(CC1CCCCC1)[C@@H](C)CO2`, which AC50 [15] is on record?
Answer: 6.65 µM (active)
